Results: PubChem BioAssay (NCI)
Several values for one entry are separate records, joined by “and”; a condition that tells them apart may be missing. Equal entries are not always repeated.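 Values below derive from 48-hour exposures of cells grown in 96-well plates, with endpoints linearly interpolated between the two concentrations bracketing the appropriate inhibition level. GI50 is the concentration that inhibits growth by half. TGI is the concentration that stops growth completely.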

What was measured:
Test in all cases: NCI tumour cell line growth inhibition, 48 h
NCI-H23 lung = test system: NCI-H23 lung
RXF 393 renal = test system: RXF 393 renal
U251 CNS = test system: U251 CNS
LOX IMVI melanoma = test system: LOX IMVI melanoma
HT29 colon = test system: HT29 colon
DU-145 prostate = test system: DU-145 prostate
NCI-H226 lung = test system: NCI-H226 lung
OVCAR-8 ovarian = test system: OVCAR-8 ovarian
CAKI-1 renal = test system: CAKI-1 renal
SNB-19 CNS = test system: SNB-19 CNS

Compound | GI50 (NCI-H23 lung) | TGI (NCI-H23 lung) | GI50 (RXF 393 renal) | TGI (RXF 393 renal) | GI50 (U251 CNS) | TGI (U251 CNS) | GI50 (LOX IMVI melanoma) | TGI (LOX IMVI melanoma) | GI50 (HT29 colon) | TGI (HT29 colon) | GI50 (DU-145 prostate) | TGI (DU-145 prostate) | TGI (NCI-H226 lung) | GI50 (OVCAR-8 ovarian) | TGI (OVCAR-8 ovarian) | GI50 (CAKI-1 renal) | TGI (CAKI-1 renal) | GI50 (SNB-19 CNS) | TGI (SNB-19 CNS) | GI50 (NCI-H226 lung)
COc1ccc(-c2cn[nH]c2-c2cc(OC)c(OC)c(OC)c2)cc1N | < 0.01 µM and 0.0634 µM | > 100 µM | 0.0247 µM | > 100 µM | < 0.01 µM and 0.0404 µM | > 100 µM | < 0.01 µM and 0.0436 µM | > 100 µM | < 0.01 µM and 0.0339 µM | > 100 µM | < 0.01 µM and 0.0508 µM | > 100 µM | > 100 µM and 56.3 µM | < 0.01 µM and 0.0519 µM | > 100 µM | < 0.01 µM and 0.0324 µM | > 100 µM | < 0.01 µM and 0.0484 µM | > 100 µM | –
O=C1OC(=O)C2C1C1(c3ccccc3)C(c3ccccc3)=C(c3ccccc3)C2(c2ccccc2)S1=O (stereo not given) | > 100 µM | > 100 µM | > 100 µM | > 100 µM | > 100 µM | > 100 µM | > 100 µM | > 100 µM | > 100 µM | > 100 µM | > 100 µM | > 100 µM | > 100 µM | > 100 µM | > 100 µM | > 100 µM | > 100 µM | > 100 µM | > 100 µM | > 100 µM
O=C(NC(=S)Nc1ccc(Cl)cc1)c1ccccc1 | > 100 µM | > 100 µM | > 56.2 µM | > 100 µM | > 77.2 µM | > 100 µM | > 100 µM | > 100 µM | > 100 µM | > 100 µM | > 72.9 µM | > 100 µM | > 100 µM | > 100 µM | > 100 µM | > 79.7 µM | > 100 µM | > 79.2 µM | > 100 µM | > 100 µM
Cc1cc(S(=O)(=O)Nc2nnc(-c3ccccc3)c(-c3ccccc3)n2)c(SCc2ccccc2)cc1Cl | 22.6 µM | 48.1 µM | 19.8 µM | 39.2 µM | 21.7 µM | 50.1 µM | 26.2 µM | 50.2 µM | 22.4 µM | 51.7 µM | 15.2 µM | 30.7 µM | 79.8 µM | 27.2 µM | 89.7 µM | 25.5 µM | 42.5 µM | 25.7 µM | 52.7 µM | 27.7 µM
O=C(NOCC1CC1)c1ccc(F)c(F)c1Nc1ccc(I)cc1Cl | 0.782 µM | 23 µM | 2.11 µM | 8.95 µM | 1.55 µM | 12.2 µM | 0.727 µM | 13.2 µM | 0.112 µM | 11.1 µM | 4.07 µM | > 100 µM | > 52.1 µM | 2.32 µM | 20.6 µM | 2.75 µM | > 100 µM | 1.38 µM | 97.3 µM | 2.77 µM
C[C@H]1CCC/C=C/[C@@H]2C[C@H](O)C[C@H]2[C@H](O)[C@@H](S(=O)CCN(C)C)CC(=O)O1 (stereo not given in full) | 0.229 µM | > 38.8 µM | 0.0542 µM | > 100 µM | 0.498 µM | > 100 µM | 0.0697 µM | > 100 µM | 0.114 µM | 0.293 µM | 0.555 µM | > 100 µM | > 100 µM | 0.0966 µM | – | 0.389 µM | – | – | > 100 µM | 0.0562 µM
CC1(C)OCC(CO)(Nc2nc(N3CC3)nc(N3CC3)n2)CO1 | – | 16.3 µM | – | 28.6 µM | – | 31.7 µM | – | 32.4 µM | – | 53.7 µM | – | 8.91 µM | 28.5 µM | – | 33.1 µM | – | 13.8 µM | – | 62.1 µM | –
C=C(CN1CCc2ccccc2C1)c1ccc(C(=O)Nc2ccc(N)cc2)cc1 | 17.4 µM | > 100 µM | 16.9 µM | 91.4 µM | 28.2 µM | > 100 µM | 17.7 µM | 55.7 µM | 19.6 µM | 43.2 µM | 21.1 µM | 81.3 µM | > 100 µM | 22.6 µM | 77.7 µM | 19.6 µM | > 100 µM | 28.3 µM | > 100 µM | 58.5 µM
Cc1nc2cccc(NCc3ccc(C(=O)NO)cc3)c2c(=O)n1-c1ccccc1 | 1.63 µM | 3.18 µM | 1.41 µM | 2.79 µM | 1.56 µM | 3.04 µM | 1.82 µM | 3.35 µM | 2.81 µM | 11.6 µM | 2.7 µM | 11.9 µM | 6.08 µM | 1.52 µM | 3.75 µM | 1.67 µM | 3.62 µM | 1.92 µM | 4.56 µM | 2.01 µM
S=C(Nc1ccc(Cl)cc1)Nc1ccc(-c2nc3ccccc3[nH]2)cc1 | 3.89 µM | 17.5 µM | 5.86 µM | > 20.5 µM | 5.06 µM | 18.1 µM | 5.05 µM | 11.7 µM | 4.06 µM | 14.9 µM | 12.1 µM | – | > 46.6 µM | 14.3 µM | > 59.7 µM | 2.7 µM | 12.5 µM | 9.29 µM | 36.5 µM | 10 µM
COc1cc(/C=C/C(=O)c2ccc(Cl)cc2)ccc1OS(=O)(=O)c1ccc(C)cc1 | 13.3 µM | 43.6 µM | 13.2 µM | 29.5 µM | 2.18 µM | 5.38 µM | 1.93 µM | 3.67 µM | 2.15 µM | 4.73 µM | 16.4 µM | 45.2 µM | 27.9 µM | 3.23 µM | 16 µM | 11.1 µM | 44.4 µM | 9.53 µM | 23.2 µM | 12.7 µM
O=C1C=Cc2ccccc2/C1=C/c1[nH]c(=O)[nH]c1O | 8.19 µM | > 100 µM | 2.78 µM | 10.2 µM | 5.39 µM | 35 µM | 7 µM | > 100 µM | 4.35 µM | 17.1 µM | 5.8 µM | 76.8 µM | > 100 µM | 9.6 µM | 62.5 µM | 5.7 µM | 42.7 µM | 3.49 µM | 16.6 µM | 9.59 µM
O=C(Oc1ccc(CCl)cc1)c1ccccc1 | 0.322 µM | 1.15 µM | 0.174 µM | 0.332 µM | 0.138 µM | 0.268 µM | 0.158 µM | 0.305 µM | 0.149 µM | 0.289 µM | 0.269 µM | 0.746 µM | 0.437 µM | 0.155 µM | 0.291 µM | 0.16 µM | 0.303 µM | 0.187 µM | 0.495 µM | 0.185 µM
O=C(C(Br)Br)C(Br)C(Br)c1ccccc1 (stereo not given) | 5.16 µM | 27.5 µM | 1.7 µM | 3.45 µM | 2.96 µM | 10.8 µM | 1.49 µM | 3.61 µM | 2.5 µM | 5.39 µM | 11.4 µM | 23.6 µM | 15.4 µM | 3.16 µM | > 100 µM | 1.78 µM | 3.37 µM | 17.4 µM | 35.2 µM | 3.31 µM
CCN(CC)CCCCCCCNc1c2ccc(Cl)cc2nc2ccc(OC)cc12 | 1.14 µM | 2.84 µM | 0.84 µM | 2.35 µM | 0.706 µM | 1.93 µM | 0.275 µM | 1.17 µM | 0.203 µM | 0.604 µM | 0.66 µM | 2 µM | 4.42 µM | 0.628 µM | 2.9 µM | 1.55 µM | 4.65 µM | 1.75 µM | 5.84 µM | 1.83 µM
COc1c(O)ccc2c1CN1CCc3cc4c(cc3C1C2)OCO4 (stereo not given) | – | > 100 µM | – | 50.6 µM | – | > 100 µM | – | > 77.8 µM | – | > 100 µM | – | > 100 µM | > 100 µM | – | > 100 µM | – | > 100 µM | – | > 100 µM | –
O=C1C(=O)c2ccccc2C(O)=C1C(CCc1ccccc1)C1=C(O)c2ccccc2C(=O)C1=O | – | > 100 µM | – | > 100 µM | – | > 100 µM | – | > 100 µM | – | > 100 µM | – | 29.1 µM | > 100 µM | – | > 100 µM | – | > 100 µM | – | > 100 µM | –
C/C=C(\C)C(=O)O[C@H]1C=CC(=O)O[C@H]1CNC(=O)[C@H](C)O | 22.1 µM | 47.8 µM | 19.3 µM | 40.1 µM | 15.7 µM | 29.9 µM | 15.9 µM | 30.4 µM | 18.9 µM | 42.6 µM | 31.7 µM | > 100 µM | 46.7 µM | 24.3 µM | 65.9 µM | 26.8 µM | 44.4 µM | 30.5 µM | > 100 µM | 17.9 µM
CCOC(=O)Oc1c(OC)cc(C(=O)O[C@@H]2C[C@@H]3CN4CCc5c([nH]c6cc(OC)ccc56)[C@H]4C[C@@H]3[C@H](C(=O)OC)[C@H]2OC)cc1OC | 5.24 µM | 21.8 µM | 5.03 µM | 19.1 µM | 4.24 µM | 15.1 µM | 2.91 µM | 14.7 µM | 2.32 µM | 5.92 µM | 13.5 µM | 95.8 µM | 58.1 µM | 4.94 µM | 21.1 µM | 13.9 µM | 48.1 µM | 5.04 µM | 20.9 µM | 15.1 µM
